Measured values reported in patent US4596806A, “7-piperidino-1,2,3,5-tetrahydroimidazo[2,1-b]-quinazolin-2-one having platelet aggregation inhibitory activity” (Daiichi Seiyaku Co., Ltd., priority 1983, dated 1986).
pIC50: −log10 of the molar value. Where a name gives a salt, the structure may show the parent alone. Read-outs that look alike come from different tables or passages of the source.

Tests used:
[1] = test system: platelet aggregation; assay: Test of Platelet Aggregation Inhibition (in vitro), human PRP; format: cell-based; conditions: for pIC50: Homo sapiens, Platelet, human blood, read-out: Platelet Aggregation Inhibitory Activity (in vitro: IC50)
Procedure: (§1) The test was performed as follows in accordance with the method of Ashida et al, Thrombosis and Haemostasis, Vol. 40, p542 (1979).
(§2) Blood was taken by puncture from the heart of a Wistar Imamichi rat under anesthesia with pentobarbital into a syringe containing 1/10 volume of a 3.13% aqueous solution of sodium citrate dihydrate, and the citrated blood was centrifuged to obtain a platelet-rich-plasma (PRP). In the same manner, citrated blood was collected from the vein of a healthy human who had not taken aspirin or any other anti-inflammatory agent since before 10 days, followed by centrifugation to obtain PRP. 0.005 ml of each test compound was added to 0.445 ml each of these PRP samples, and the system was warmed at 30° C. for 1 minute. 0.05 ml of an aggregation inducer (ADP or collagen) was then added thereto, and platelet aggregation was determined according to the method of Born, Nature, Vol. 194, p927 (1962). The inhibitory activity of platelet aggregation was expressed in terms of 50% inhibition concentration, and the results obtained are shown in Table 2.

[2] = test system: platelet aggregation; assay: Test of Platelet Aggregation Inhibition (in vitro), rat PRP; format: cell-based, rat (Wistar Imamichi); conditions: rat blood, read-out: Platelet Aggregation Inhibitory Activity (in vitro: IC50)
Procedure: as §1, §2

[3] = Solubility Test (water-solubility); format: physicochemical
[4] = test system: platelet aggregation; assay: Test of Platelet Aggregation Inhibition (ex vivo, p.o.); format: in vivo, rat (male Wistar Imamichi); conditions: for inhibition at 1 mg/kg / inhibition at 10 mg/kg: Rattus norvegicus, Platelet, po, 1 h, read-out: Platelet Aggregation Inhibitory Activity (ex vivo: % inhibition); for inhibition at 1 mg/kg: p.o. 1 mg/Kg; for inhibition at 10 mg/kg: p.o. 10 mg/Kg; for aggregation inhibitory activity ex vivo (in words): p.o. 10 mg/Kg or 1 mg/Kg, ADP- or collagen-induced
Procedure: One hour later, citrated blood was taken from the heart, and platelet aggregation was determined in the same manner as described in Test Example 2.

[5] = test system: circulatory system; assay: Test of Influence on Circulatory System (blood pressure, heart beat); format: in vivo, rat (male normal SLC-Wistar); conditions: p.o. 50 mg/Kg
Procedure: 5 or 6 male normal SLC-Wistar rats per group (body weight: 205-255 g) orally received 50 mg/Kg of the test compound, and the blood pressure (tail cuff method) and the heart beats were measured with the passage of time in order to elucidate influences of the test compound on the circulatory system.

[6] = pH 2, Tap Water, solution pH about 2

SMILES | pIC50 ([1]; inducer ADP) | pIC50 ([1]; inducer collagen) | pIC50 ([2]; inducer ADP) | pIC50 ([2]; inducer collagen) | solubility ([3]; Water at pH 4) | solubility [3, 6] | inhibition at 1 mg/kg ([4]; inducer ADP) | inhibition at 1 mg/kg ([4]; inducer collagen) | inhibition at 10 mg/kg ([4]; inducer ADP) | inhibition at 10 mg/kg ([4]; inducer collagen) | aggregation inhibitory activity ex vivo (in words) [4] | Increase in Heart Beat ([5]; 1 hr after admin.) | Reduction in Blood Pressure ([5]; 1 hr after admin.) | Increase in Heart Beat ([5]; 2 hr after admin.) | Reduction in Blood Pressure ([5]; 2 hr after admin.) | Increase in Heart Beat ([5]; 3 hr after admin.) | Reduction in Blood Pressure ([5]; 3 hr after admin.) | Increase in Heart Beat ([5]; 5 hr after admin.) | Reduction in Blood Pressure ([5]; 5 hr after admin.) | Increase in Heart Beat ([5]; 6 hr after admin.) | other results
Cl.Cl.Nc1ccc2c(c1)CN1CC(=O)NC1=N2 [BL-7-NH2, 7-amino-1,2,3,5-tetrahydroimidazo[2,1-b]quinazolin-2-one dihydrochloride] | 4.30 | 4.55 | 3.77 | 4.80 |  |  |  |  |  |  |  |  |  |  |  |  |  |  |  |  | anti-platelet aggregation activity (in words) ([1]; in vitro, Table 2 results (human and rat PRP)): scarcely exhibits platelet aggregation inhibitory activity
Cc1cccc2c1CN1CC(=O)NC1=N2.Cl [BL-3459, 6-methyl-1,2,3,5-tetrahydroimidazo[2,1-b]quinazolin-2-one hydrochloride] | 5.77 | 6.15 | 5.30 | 6.12 | 10 µg/mL | 100 µg/mL | 12% | 41% | 31% | 54% | cannot be regarded significant | 18% | 23% | 20% | 28% | 17% | 26% | 18% | 34% | 19% | Reduction in Blood Pressure ([5]; 6 hr after admin.): 35%; Reduction in Blood Pressure ([5]; 24 hr after admin.): 12%
O=C1CN2Cc3c(ccc(Cl)c3Cl)N=C2N1 [BL-4162, 6,7-dichloro-1,2,3,5-tetrahydro[2,1-b]quinazolin-2-one hydrochloride] | 5.92 | 6.30 | 6.10 | 7.70 | 10 µg/mL | 10 µg/mL | 10% | 33% | 8% | 53% | cannot be regarded significant | 28% | 11% | 37% | 16% | 31% | 17% | 31% | 14% | 31% | Increase in Heart Beat ([5]; 4 hr after admin.): 37%; Reduction in Blood Pressure ([5]; 4 hr after admin.): 14%; Reduction in Blood Pressure ([5]; 6 hr after admin.): 13%
